Reference: ChEMBL document CHEMBL2331254, “Pyrrolopyrimidine inhibitors of DNA gyrase B (GyrB) and topoisomerase IV (ParE), Part II: development of inhibitors with broad spectrum, Gram-negative antibacterial activity” (Bioorg Med Chem Lett, 2013)
≈ marks a conversion by molar mass, not a printed value.

Columns and labels:
[1] = Inhibition of Escherichia coli parE assessed as release of inorganic phosphate from ATP hydrolysis after 30 mins by coupled spectrophotometric assay
[2] = Inhibition of Francisella tularensis GyrB assessed as release of inorganic phosphate from ATP hydrolysis after 30 mins by coupled spectrophotometric assay
[3] = system: Escherichia coli; experiment: Antibacterial activity against Escherichia coli BW25113 harboring deltatolC by broth microdilution method; assay type: functional
[4] = system: Escherichia coli; experiment: Antibacterial activity against permeabilized Escherichia coli IBAS849 by broth microdilution method; assay type: functional
[5] = system: Escherichia coli; experiment: Antibacterial activity against wild type Escherichia coli ATCC 25922 by broth microdilution method; assay type: functional
[6] = system: Staphylococcus aureus; experiment: Antibacterial activity against Staphylococcus aureus ATCC 13709 by broth microdilution method; assay type: functional

Compound	Ki [1] [nM]	Ki [2] [nM]	MIC [3] [µg/mL]	MIC [4] [µg/mL]	MIC [5] [µg/mL]	MIC [6] [µg/mL]
CCc1[nH]c2nc(Sc3cnc4nccnc4c3)nc(N3CC4CNCC4C3)c2c1Cl (configuration not stated)	17	< 1	8 (≈ 17.7 µM)	8 (≈ 17.7 µM)	> 64	2 (≈ 4.42 µM)
CCc1[nH]c2nc(Sc3cnc4nccnc4c3)nc(N3C[C@@H]4[C@H](C3)[C@@]4(N)C(N)=O)c2c1Cl	< 1	–	0.25 (≈ 0.519 µM)	2 (≈ 4.15 µM)	> 64	0.25 (≈ 0.519 µM)
CCc1[nH]c2nc(Sc3cnc4nccnc4c3)nc(N3CC(NS(C)(=O)=O)C3)c2c1Cl	9	< 1	–	32 (≈ 65.2 µM)	> 64	4 (≈ 8.15 µM)
CCc1[nH]c2nc(Sc3cnc4nccnc4c3)nc(N3CCC(NC)C3)c2c1Cl (configuration not stated)	40	2	8 (≈ 18.1 µM)	16 (≈ 36.3 µM)	> 64	2 (≈ 4.54 µM)
CCc1[nH]c2nc(Sc3cnc4nccnc4c3)nc(N3CC(NC(=O)C4CC4)C3)c2c1Cl	3	< 1	4 (≈ 8.32 µM)	8 (≈ 16.6 µM)	> 64	1 (≈ 2.08 µM)
CCc1[nH]c2nc(Sc3cnc4nccnc4c3)nc(N3C[C@@H]4[C@H](C3)[C@H]4NC(=N)N)c2c1Cl	< 1	–	2 (≈ 4.16 µM)	2 (≈ 4.16 µM)	64 (≈ 133 µM)	0.25 (≈ 0.52 µM)
CCc1[nH]c2nc(Sc3cnc4nccnc4c3)nc(N3CCC4(CCCN4)C3)c2c1Cl (configuration not stated)	35	6	8 (≈ 17.1 µM)	16 (≈ 34.3 µM)	> 64	4 (≈ 8.57 µM)
CCc1[nH]c2nc(Sc3cnc4nccnc4c3)nc(N3CC4CCNC4C3)c2c1Cl (configuration not stated)	6	< 1	2 (≈ 4.42 µM)	4 (≈ 8.83 µM)	32 (≈ 70.6 µM)	1 (≈ 2.21 µM)
CCNC(=O)NC1CN(c2nc(Sc3cnc4nccnc4c3)nc3[nH]c(CC)c(Cl)c23)C1	2	< 1	> 64	> 64	> 64	> 64
CCc1[nH]c2nc(Sc3cnc4nccnc4c3)nc(N3CC4CNC4C3)c2c1Cl (configuration not stated)	2	< 1	1 (≈ 2.28 µM)	2 (≈ 4.56 µM)	16 (≈ 36.5 µM)	0.5 (≈ 1.14 µM)
CCc1[nH]c2nc(Sc3cnc4nccnc4c3)nc(N3CC(NC(=O)c4cnccn4)C3)c2c1Cl	9	< 1	4 (≈ 7.71 µM)	8 (≈ 15.4 µM)	64 (≈ 123 µM)	1 (≈ 1.93 µM)
CCc1[nH]c2nc(Sc3cccnc3)nc(Cl)c2c1Cl	–	488	–	> 64	> 64	4 (≈ 12.3 µM)
CCc1[nH]c2nc(Sc3cnc4nccnc4c3)nc(N3CC(NC(=O)COC)C3)c2c1Cl	10	< 1	2 (≈ 4.12 µM)	4 (≈ 8.25 µM)	> 64	0.25 (≈ 0.515 µM)
CCc1[nH]c2nc(Sc3cnc4nccnc4c3)nc(N3CCCC(N)C3)c2c1Cl (configuration not stated)	131	7	16 (≈ 36.3 µM)	32 (≈ 72.6 µM)	> 64	8 (≈ 18.1 µM)
CCc1[nH]c2nc(Sc3cnc4nccnc4c3)nc(N3C[C@@H]4[C@H](C3)[C@@]4(N)CO)c2c1Cl	2	< 1	0.5 (≈ 1.07 µM)	4 (≈ 8.53 µM)	64 (≈ 136 µM)	0.25 (≈ 0.533 µM)
CCc1[nH]c2nc(Sc3cnc4nccnc4c3)nc(N3CCC(N)C3)c2c1Cl (configuration not stated)	11	< 1	2 (≈ 4.68 µM)	4 (≈ 9.37 µM)	32 (≈ 75 µM)	1 (≈ 2.34 µM)
CCc1[nH]c2nc(Sc3cnc4nccnc4c3)nc(N3CC(C)(N)C3)c2c1Cl	69	16	16 (≈ 37.5 µM)	16 (≈ 37.5 µM)	> 64	4 (≈ 9.37 µM)
